Source: article PMC9329436, “Optimization of the 4-anilinoquin(az)oline scaffold as epidermal growth factor receptor (EGFR) inhibitors for chordoma utilizing a toxicology profiling assay platform” (Scientific Reports, 2022)
Like-named read-outs stand apart in the source and are kept apart here.

Experiments:
Format in all cases: biochemical
[1] = target: 320 wild-type protein kinases (Homo sapiens, UniProt P27448); details: singlicate
Text: (§1) Table S4. Profiling of two compounds at two concentrations against 320 wild-type protein kinases; singlicate measurement; Residual activities (% of control).

[2] = target: T1, 320 wild-type protein kinases (Homo sapiens, UniProt Q9NZJ5); details: singlicate
T1 sequence (Q9NZJ5 30-1116): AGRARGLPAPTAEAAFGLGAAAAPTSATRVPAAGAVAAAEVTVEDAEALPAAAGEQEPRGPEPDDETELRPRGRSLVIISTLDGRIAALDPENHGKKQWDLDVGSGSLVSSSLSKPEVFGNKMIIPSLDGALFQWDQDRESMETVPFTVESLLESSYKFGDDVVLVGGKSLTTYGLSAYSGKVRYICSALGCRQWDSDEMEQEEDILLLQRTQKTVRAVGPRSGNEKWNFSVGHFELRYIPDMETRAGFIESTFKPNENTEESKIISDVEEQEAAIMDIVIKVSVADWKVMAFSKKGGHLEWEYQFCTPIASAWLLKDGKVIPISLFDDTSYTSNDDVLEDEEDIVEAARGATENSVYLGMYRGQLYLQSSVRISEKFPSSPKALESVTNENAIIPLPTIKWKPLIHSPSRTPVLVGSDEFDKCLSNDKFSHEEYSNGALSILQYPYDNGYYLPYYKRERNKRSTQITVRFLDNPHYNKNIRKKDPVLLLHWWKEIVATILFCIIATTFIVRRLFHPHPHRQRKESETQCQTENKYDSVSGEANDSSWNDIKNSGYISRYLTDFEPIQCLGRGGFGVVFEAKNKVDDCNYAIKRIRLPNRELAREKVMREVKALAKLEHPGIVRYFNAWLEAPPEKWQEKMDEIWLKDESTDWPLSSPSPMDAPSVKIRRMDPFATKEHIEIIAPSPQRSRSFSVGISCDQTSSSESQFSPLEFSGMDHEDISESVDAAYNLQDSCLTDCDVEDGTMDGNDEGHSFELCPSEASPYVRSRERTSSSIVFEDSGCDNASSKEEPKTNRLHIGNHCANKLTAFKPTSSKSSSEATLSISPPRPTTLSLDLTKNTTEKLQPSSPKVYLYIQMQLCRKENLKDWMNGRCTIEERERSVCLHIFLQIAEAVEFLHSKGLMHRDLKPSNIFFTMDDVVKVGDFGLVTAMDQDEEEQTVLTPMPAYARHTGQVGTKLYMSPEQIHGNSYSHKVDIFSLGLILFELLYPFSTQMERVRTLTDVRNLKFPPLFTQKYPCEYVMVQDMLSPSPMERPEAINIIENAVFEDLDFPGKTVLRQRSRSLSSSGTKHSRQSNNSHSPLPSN
Text: as §1

[3] = tested on: 320 wild-type protein kinases; details: singlicate
Text: as §1

[4] = target: 320 wild-type protein kinases (Homo sapiens, UniProt Q9NQU5); details: singlicate
Text: as §1

[5] = target: 320 wild-type protein kinases (Homo sapiens, UniProt Q9H422); details: singlicate
Text: as §1

[6] = target: 320 wild-type protein kinases (Homo sapiens, UniProt O96017); details: singlicate
Text: as §1

[7] = target: T2, 320 wild-type protein kinases (Homo sapiens, UniProt P21709); details: singlicate
T2 sequence (P21709 26-976): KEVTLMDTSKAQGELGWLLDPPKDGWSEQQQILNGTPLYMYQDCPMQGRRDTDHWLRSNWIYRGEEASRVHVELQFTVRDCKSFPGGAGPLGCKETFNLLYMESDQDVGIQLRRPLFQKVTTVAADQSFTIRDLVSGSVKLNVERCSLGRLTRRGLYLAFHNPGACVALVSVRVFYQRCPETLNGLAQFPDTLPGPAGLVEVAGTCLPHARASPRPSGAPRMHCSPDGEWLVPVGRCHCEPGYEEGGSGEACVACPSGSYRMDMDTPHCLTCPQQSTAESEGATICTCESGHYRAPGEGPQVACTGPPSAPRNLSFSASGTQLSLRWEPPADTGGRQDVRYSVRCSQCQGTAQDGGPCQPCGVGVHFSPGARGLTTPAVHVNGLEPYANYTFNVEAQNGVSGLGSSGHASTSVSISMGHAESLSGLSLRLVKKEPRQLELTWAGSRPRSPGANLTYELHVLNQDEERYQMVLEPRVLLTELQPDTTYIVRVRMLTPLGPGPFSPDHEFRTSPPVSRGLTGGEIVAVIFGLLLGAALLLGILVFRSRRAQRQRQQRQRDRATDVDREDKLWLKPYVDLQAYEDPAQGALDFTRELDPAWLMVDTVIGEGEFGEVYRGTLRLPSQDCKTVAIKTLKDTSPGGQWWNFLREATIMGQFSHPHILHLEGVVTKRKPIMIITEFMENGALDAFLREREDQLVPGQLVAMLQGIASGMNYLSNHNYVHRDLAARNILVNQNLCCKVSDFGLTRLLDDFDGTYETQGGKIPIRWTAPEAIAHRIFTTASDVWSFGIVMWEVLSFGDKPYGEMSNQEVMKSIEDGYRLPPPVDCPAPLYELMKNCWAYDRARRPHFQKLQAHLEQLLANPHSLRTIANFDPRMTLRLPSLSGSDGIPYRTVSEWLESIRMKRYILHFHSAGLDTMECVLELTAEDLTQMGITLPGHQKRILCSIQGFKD
Text: as §1

[8] = target: T3, 320 wild-type protein kinases (Homo sapiens, UniProt P52564, S207D/T211D); details: MKK6 S207D/T211D**, singlicate
T3 sequence (P52564 1-334 S207D/T211D): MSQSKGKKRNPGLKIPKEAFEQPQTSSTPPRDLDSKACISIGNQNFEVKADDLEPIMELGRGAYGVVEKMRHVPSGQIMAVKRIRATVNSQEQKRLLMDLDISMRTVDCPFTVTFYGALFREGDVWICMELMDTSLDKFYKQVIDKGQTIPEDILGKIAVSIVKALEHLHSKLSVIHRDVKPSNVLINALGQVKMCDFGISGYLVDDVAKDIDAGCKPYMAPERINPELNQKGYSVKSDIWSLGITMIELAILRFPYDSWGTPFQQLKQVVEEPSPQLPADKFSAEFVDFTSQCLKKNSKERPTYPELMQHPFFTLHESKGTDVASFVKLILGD
Text: as §1

320 wild-type protein kinases (Homo sapiens, UniProt P27448), sequence (P27448 whole entry): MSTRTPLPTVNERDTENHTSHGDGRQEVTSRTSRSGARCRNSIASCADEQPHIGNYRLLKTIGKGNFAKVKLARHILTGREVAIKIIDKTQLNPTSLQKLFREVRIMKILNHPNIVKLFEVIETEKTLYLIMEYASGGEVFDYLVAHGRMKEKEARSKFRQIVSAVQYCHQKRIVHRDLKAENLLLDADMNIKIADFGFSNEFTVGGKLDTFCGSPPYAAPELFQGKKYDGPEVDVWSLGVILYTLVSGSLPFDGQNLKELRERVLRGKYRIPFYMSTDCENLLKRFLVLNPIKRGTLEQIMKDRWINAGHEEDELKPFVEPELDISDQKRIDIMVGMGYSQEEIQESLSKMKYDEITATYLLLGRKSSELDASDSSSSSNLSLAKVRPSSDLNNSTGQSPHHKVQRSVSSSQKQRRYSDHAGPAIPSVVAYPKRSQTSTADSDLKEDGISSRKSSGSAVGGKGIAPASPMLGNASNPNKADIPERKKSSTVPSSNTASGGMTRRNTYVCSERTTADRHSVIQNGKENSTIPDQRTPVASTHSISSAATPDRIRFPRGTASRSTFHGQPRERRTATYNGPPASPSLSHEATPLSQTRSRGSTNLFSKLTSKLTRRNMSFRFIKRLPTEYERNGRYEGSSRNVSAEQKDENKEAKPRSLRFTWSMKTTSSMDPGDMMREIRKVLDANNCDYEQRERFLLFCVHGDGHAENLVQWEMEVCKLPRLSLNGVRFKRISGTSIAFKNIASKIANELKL
320 wild-type protein kinases (Homo sapiens, UniProt Q9NQU5), sequence (Q9NQU5 whole entry): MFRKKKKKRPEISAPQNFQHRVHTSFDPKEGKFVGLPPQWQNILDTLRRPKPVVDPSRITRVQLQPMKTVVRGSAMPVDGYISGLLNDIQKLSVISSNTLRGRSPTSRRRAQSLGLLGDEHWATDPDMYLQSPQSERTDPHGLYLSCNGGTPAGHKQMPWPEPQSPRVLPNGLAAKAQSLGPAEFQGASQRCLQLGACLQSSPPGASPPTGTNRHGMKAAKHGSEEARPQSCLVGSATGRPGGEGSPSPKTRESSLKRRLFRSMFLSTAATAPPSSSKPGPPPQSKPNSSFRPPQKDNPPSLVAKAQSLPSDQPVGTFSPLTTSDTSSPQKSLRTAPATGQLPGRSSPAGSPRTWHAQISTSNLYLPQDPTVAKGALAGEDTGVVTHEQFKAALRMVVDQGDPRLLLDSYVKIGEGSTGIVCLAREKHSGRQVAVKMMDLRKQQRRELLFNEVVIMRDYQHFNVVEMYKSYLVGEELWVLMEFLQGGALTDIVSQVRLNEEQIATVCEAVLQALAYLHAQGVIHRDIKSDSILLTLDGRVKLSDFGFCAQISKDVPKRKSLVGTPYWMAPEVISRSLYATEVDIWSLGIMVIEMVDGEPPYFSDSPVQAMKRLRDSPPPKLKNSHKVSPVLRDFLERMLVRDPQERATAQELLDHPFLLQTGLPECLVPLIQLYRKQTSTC
320 wild-type protein kinases (Homo sapiens, UniProt O96017), sequence (O96017 whole entry): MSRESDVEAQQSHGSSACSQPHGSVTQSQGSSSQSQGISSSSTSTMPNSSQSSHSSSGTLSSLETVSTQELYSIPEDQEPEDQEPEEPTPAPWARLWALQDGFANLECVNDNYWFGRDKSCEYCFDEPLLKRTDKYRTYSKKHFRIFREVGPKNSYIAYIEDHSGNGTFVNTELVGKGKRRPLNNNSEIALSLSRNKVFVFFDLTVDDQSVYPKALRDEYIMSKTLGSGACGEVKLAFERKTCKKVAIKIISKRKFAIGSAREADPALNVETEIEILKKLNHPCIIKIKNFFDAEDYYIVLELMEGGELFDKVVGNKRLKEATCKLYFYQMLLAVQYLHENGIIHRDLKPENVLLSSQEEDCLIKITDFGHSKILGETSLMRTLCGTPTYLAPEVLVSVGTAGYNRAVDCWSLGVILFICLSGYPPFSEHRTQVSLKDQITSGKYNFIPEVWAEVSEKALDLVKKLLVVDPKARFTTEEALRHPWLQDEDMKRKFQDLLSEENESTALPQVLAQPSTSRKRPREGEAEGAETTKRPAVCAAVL
320 wild-type protein kinases (Homo sapiens, UniProt Q9H422), sequence (Q9H422 whole entry): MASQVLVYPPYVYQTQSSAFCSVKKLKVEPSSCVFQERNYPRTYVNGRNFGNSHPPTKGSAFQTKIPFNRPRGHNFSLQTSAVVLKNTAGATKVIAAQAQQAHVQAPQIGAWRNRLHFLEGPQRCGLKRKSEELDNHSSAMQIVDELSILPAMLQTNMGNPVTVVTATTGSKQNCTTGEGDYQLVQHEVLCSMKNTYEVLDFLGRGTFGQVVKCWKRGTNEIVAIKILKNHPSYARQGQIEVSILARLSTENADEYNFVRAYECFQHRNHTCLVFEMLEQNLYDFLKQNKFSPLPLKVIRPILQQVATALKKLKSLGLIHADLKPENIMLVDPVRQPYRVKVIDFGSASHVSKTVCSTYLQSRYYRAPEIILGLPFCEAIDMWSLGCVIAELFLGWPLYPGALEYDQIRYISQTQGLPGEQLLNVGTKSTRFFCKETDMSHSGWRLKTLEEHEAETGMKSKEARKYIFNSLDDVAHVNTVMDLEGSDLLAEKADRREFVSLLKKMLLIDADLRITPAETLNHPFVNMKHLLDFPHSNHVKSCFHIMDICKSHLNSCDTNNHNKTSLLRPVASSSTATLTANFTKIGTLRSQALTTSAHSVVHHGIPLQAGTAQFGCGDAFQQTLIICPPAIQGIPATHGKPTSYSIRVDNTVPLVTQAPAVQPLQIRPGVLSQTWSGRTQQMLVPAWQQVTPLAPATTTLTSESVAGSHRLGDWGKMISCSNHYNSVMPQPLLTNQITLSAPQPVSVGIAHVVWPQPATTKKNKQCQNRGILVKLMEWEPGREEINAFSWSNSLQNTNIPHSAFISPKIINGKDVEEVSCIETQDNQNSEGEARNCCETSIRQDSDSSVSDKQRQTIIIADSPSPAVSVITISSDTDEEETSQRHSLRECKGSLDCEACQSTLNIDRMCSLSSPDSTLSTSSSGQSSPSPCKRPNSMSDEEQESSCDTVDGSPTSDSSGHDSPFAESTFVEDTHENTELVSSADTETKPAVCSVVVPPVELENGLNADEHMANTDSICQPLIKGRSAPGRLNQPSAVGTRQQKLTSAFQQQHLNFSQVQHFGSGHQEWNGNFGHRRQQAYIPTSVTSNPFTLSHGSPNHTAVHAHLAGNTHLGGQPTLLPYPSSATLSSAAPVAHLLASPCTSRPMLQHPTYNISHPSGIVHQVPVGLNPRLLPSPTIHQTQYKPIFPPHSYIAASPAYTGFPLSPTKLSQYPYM

| SMILES | Residual activity ([1]; MARK3, 1.0E-06 M) | Residual activity ([1]; MARK3, 1.0E-07 M) | Residual activity ([2]; EIF2AK3, 1.0E-06 M) | Residual activity ([2]; EIF2AK3, 1.0E-07 M) | Residual activity ([3]; PKC-beta2, 1.0E-06 M) | Residual activity ([3]; PKC-beta2, 1.0E-07 M) | Residual activity ([4]; PAK6, 1.0E-06 M) | Residual activity ([4]; PAK6, 1.0E-07 M) | Residual activity ([5]; HIPK3, 1.0E-06 M) | Residual activity ([5]; HIPK3, 1.0E-07 M) | Residual activity ([6]; CHK2, 1.0E-06 M) | Residual activity ([6]; CHK2, 1.0E-07 M) | Residual activity ([7]; EPHA1, 1.0E-06 M) | Residual activity ([7]; EPHA1, 1.0E-07 M) | Residual activity ([8]; 1.0E-06 M) | Residual activity ([8]; 1.0E-07 M) |
| --- | --- | --- | --- | --- | --- | --- | --- | --- | --- | --- | --- | --- | --- | --- | --- | --- |
| C#Cc1cc(Nc2ncnc3cc(I)ccc23)ccc1Cl [Compound 41] | 95 % of control | 97 % of control | 95 % of control | 86 % of control | 95 % of control | 98 % of control | 88 % of control | 97 % of control | 103 % of control | 98 % of control | 83 % of control | 105 % of control | 78 % of control | 106 % of control | 98 % of control | 90 % of control |
| C#Cc1cc(Nc2ncnc3cc(OC)c(OC)cc23)ccc1Cl [Compound 45] | 100 % of control | 96 % of control | 82 % of control | 90 % of control | 95 % of control | 97 % of control | 87 % of control | 98 % of control | 97 % of control | 102 % of control | 78 % of control | 94 % of control | 80 % of control | 91 % of control | 90 % of control | 95 % of control |
